In article PMC12297887, “Enhanced Anticancer Potential of Pd(II)-Thiosemicarbazone Complexes: Selectivity, Mechanisms, and 3D Models” (Pharmaceutics, 2025):

Legend:
[1] = test system: MDA-MB-231 (triple-negative breast cancer); assay: Cell viability (MTT), MDA-MB-231; assay type: cell-based, human; conditions: for IC50: 48 h of incubation, MTT; for Selectivity index (SI) MDA-MB-231: IC50 MRC5 / IC50 MDA-MB-231
Procedure: (§1) The cell lines used in the tests were A2780 (ovarian cancer), A2780cis (ovarian cisplatin resistant cancer), A549 (lung cancer), MRC5 (non-tumoral lung […]), MDA-MB-231 (triple-negative breast cancer), MCF-7 (breast cancer), SK-BR-3 (breast cancer), MCF-10A (non-tumoral breast cancer), and A375 (skin cancer—melanoma).
(§2) The MCF-10A cell line was grown in DMEM/F-12 culture medium, supplemented with 5% horse serum, human epidermal growth factor (EGF) (20 ng/mL), hydrocortisone (0.05 mg/mL), insulin (0.01 mg/mL), penicillin (1%), streptomycin (1%), and L-glutamine (2 mM). The A2780, A2780cis, and MCF-7 cell lines were cultured in RPMI-1640 medium, and the other lines in DMEM medium; both culture media were supplemented with 10% (v/v) FBS (fetal bovine serum), antibiotics, and antimycotics. Cultivation was carried out in culture flasks stored in a humid incubator at 37 °C, with an atmosphere of 5% CO2.
(§3) The plates were kept for 24 h in a humidified incubator (37 °C, 5% CO2), after which 0.75 μL of a DMSO solution (0.5% v/v) containing the compounds of interest was added to each well. The plates were then incubated for a further 48 h. The ratio of viability of cells was obtained using the MTT method. Through its reduction via the mitochondrial process, purple formazan is formed, which is proportional to cell viability. After incubating the microplates, 50 μL of a solution of MTT (1 mg∙mL^−1) in PBS was added to each well and the cells were incubated again in the oven for 4 h. Finally, the solution was removed from each well and 100 μL of isopropyl alcohol with 10% DMSO was added to solubilize the Formazan crystals. Absorbance measurements (540 nm) were then taken in each well using a BioTek EPOCH spectrophotometer (BioTek, Winooski, WT, USA). The data obtained was analyzed using Excel 360 and GraphPadPrism 8.0.2.

MCF-7 (breast cancer) = assay: Cell viability (MTT), MCF-7; assay type: cell-based, human; conditions: for IC50: 48 h of incubation, MTT; for Selectivity index (SI) MCF-7: IC50 MRC5 / IC50 MCF-7
Procedure: as §1, §2, §3

SK-BR-3 (breast cancer) = assay: Cell viability (MTT), SK-BR-3; assay type: cell-based, human; conditions: for IC50: 48 h of incubation, MTT; for Selectivity index (SI) SK-BR-3: IC50 MRC5 / IC50 SK-BR-3
Procedure: as §1, §2, §3

[2] = test system: MCF-10A (non-tumoral breast); assay: Cell viability (MTT), MCF-10A; assay type: cell-based, human; conditions: 48 h of incubation, non-tumorigenic breast line, read-out: IC50 MFC-10A
Procedure: as §1, §2, §3

A2780 (ovarian cancer) = assay: Cell viability (MTT), A2780; assay type: cell-based; conditions: for IC50: 48 h of incubation, MTT; for Selectivity index (SI) A2780: IC50 MRC5 / IC50 A2780
Procedure: as §1, §2, §3

[3] = test system: A2780cis (ovarian cisplatin resistant cancer); assay: Cell viability (MTT), A2780cis; assay type: cell-based; conditions: for IC50: 48 h of incubation, MTT; for resistance factor (RF): IC50(A2780cis)/IC50(A2780); for Selectivity index (SI) A2780cis: IC50 MRC5 / IC50 A2780cis
Procedure: as §1, §2, §3

A549 (lung cancer) = assay: Cell viability (MTT), A549; assay type: cell-based; conditions: for IC50: 48 h of incubation, MTT; for Selectivity index (SI) A549: IC50 MRC5 / IC50 A549
Procedure: as §1, §2, §3

MRC5 (non-tumoral lung) = assay: Cell viability (MTT), MRC5; assay type: cell-based; conditions: 48 h of incubation, non-tumor lung fibroblast
Procedure: as §1, §2, §3

[4] = test system: A375 (skin cancer, melanoma); assay: Cell viability (MTT), A375; assay type: cell-based; conditions: 48 h of incubation
Procedure: as §1, §2, §3

A2780cis cells [5] = assay: Apoptosis assay (PE-Annexin V/7AAD, flow cytometry); assay type: cell-based; conditions: ½ × IC50, 24 h; control 86.4%
Procedure: Apoptosis in A2780cis cells induced by the complexes was analyzed by flow cytometry; a PE-Annexin-V Apoptosis Detection kit (BD Biosciences) was employed. The cells (1 × 10^5 cells/well) were seeded in a 24-well plate. After incubation for 24 h, the cells were exposed to increasing concentrations of complex PdB1 for 24 h. After treatment, the cells were collected, centrifuged at 2000 rpm and 4 °C for 5 min, washed with ice-cold PBS, and resuspended in 150 µL of binding buffer. PE-Annexin V (2.5 µL) and 7ADD (2.5 µL) were added, which was followed by incubation in the dark at room temperature for 20 min. Then, the cells were centrifuged at 2000 rpm and 4 °C for 5 min, resuspended in 400 µL of binding buffer, and analyzed on an Accuri C6 (BD Biosciences) flow cytometer; 10,000 events were recorded. Fluorescence was quantified in triplicate with the Cell Quest software (BD Biosciences). Untreated cells were the negative control.

A2780cis spheroids = assay: Three-dimensional (spheroid) assay; assay type: cell-based; conditions: for cell death within spheroids (DAPI/PI staining): 48 h; for spheroid morphology (brightfield): 48 h of treatment
Procedure: The 3D culture assay was performed with the A2780cis cell line using the Greiner Bio-One 96-well magnetic bioprinting kit. In total, 150 µL of magnetic nanoparticles were added to the cells grown in a 25 cm^2 bottle and incubated for 24 h. Then, 3750 cells/well were added to repellent 96-well plates, taken to the magnetic drive, and incubated for 4 days for the formation of […]. Once the spheroids had been obtained, they were treated with the compound PdB1 at different concentrations. Finally, images of the spheroids were recorded at 0 and 48 h, and images with fluorescence markers (DAPI and PI) were also obtained for the 48 h period using a logos biosystems CELENA® S fluorescence microscope.

A2780cis cells [6] = assay: Clonogenic assay; assay type: cell-based; conditions: concentrations in relation to the IC50 of each complex, five days of treatment
Procedure: For this test, 600 cells of the A2780cis strain were added to each well of a six-well microplate. After incubating for 24 h in a 5% CO2 atmosphere, different concentrations of the compounds were added to the wells and incubated again for five days. After this period, the culture medium was changed and the plates were incubated for a further five days. Finally, the culture medium was removed and washed with PBS. Subsequently, a solution of methanol and acetic acid (3:1 v/v) was added for five minutes, and then the cells were stained with methyl violet solution. The plates were washed with distilled water. After drying, they were photographed using the iBright™ FL1500 (ThermoFisher, Waltham, MA, USA) and analyzed using ImageJ 1.53 software.

A2780cis cells [7] = assay: Cell viability (LIVE/DEAD kit); assay type: cell-based; conditions: beginning at ½ × IC50, 48 h
Procedure: 1.0 × 10^4 A2780cis cells were added to each well in a 96-well plate. After 24 h, the cells were treated with different concentrations of the compound and incubated again for 48 h. Then 100 µL of the LIVE/DEAD® solution prepared as described by the manufacturer was added. The images were acquired using a fluorescence microscope (CELENA® S logos biosystems) with a 4× objective, carried out in triplicate. Live and dead cells were counted using ImageJ 1.53 software and the IC50 value was calculated using GraphPad Prism 8.0.2.

A2780cis cells [8] = assay: Cell morphology assay (DAPI / Green Plasma fluorescence); assay type: cell-based; conditions: starting at ½ × IC50, 48 h
Procedure: For morphological analysis by fluorescence with Green Plasma and DAPI, 1 × 10^4 cells/well of A2780cis were added to 96-well plates and incubated for 24 h. After this, the cells were treated with different concentrations of the compound and incubated for 48 h. Then the medium was removed and the cells were fixed with methanol for 5 min, and 50 μL of CellMasK Green Plasma membrane was added. After 5 min, 50 µL of DAPI was added and incubated at room temperature for a further 10 min. Images were taken using a fluorescence microscope (CELENA® S Logos Biosystems, Anyang-si, Republic of Korea) with the appropriate filters.

[9] = Stability in DMSO by 31P{1H} NMR; assay type: physicochemical; conditions: d6-DMSO, after 48 h, no change in chemical shift
Procedure: The ^31P{^1H} NMR experiment was also carried out and the chemical shift values of the different complexes synthesized were similar to each other. There was a shift in the free PPh3 signal from −6.81 ppm to 30 ppm (Figure S12), indicating a reduction in the electronic density at the P of the triphenylphosphine due to coordination with Pd(II). Also, the PdB3 complex was tested for stability in DMSO.

SMILES	IC50 [1]	Selectivity index (SI) MDA-MB-231 [1]	IC50 (MCF-7 (breast cancer))	Selectivity index (SI) MCF-7 (MCF-7 (breast cancer))	IC50 (SK-BR-3 (breast cancer))	Selectivity index (SI) SK-BR-3 (SK-BR-3 (breast cancer))	IC50 [2]	IC50 (A2780 (ovarian cancer))	Selectivity index (SI) A2780 (A2780 (ovarian cancer))	IC50 [3]	resistance factor (RF) [3]	Selectivity index (SI) A2780cis [3]	IC50 (A549 (lung cancer))	Selectivity index (SI) A549 (A549 (lung cancer))	IC50 (MRC5 (non-tumoral lung))	IC50 [4]	further results
N.N.[Cl][Pt][Cl] [Cisplatin, reference compound]	33.14 ± 0.3 µM	0.7	8.64 ± 0.8 µM	2.5	5.86 ± 0.2 µM	3.7	23.9 ± 0.7 µM	14.24 ± 0.05 µM	1.5	25.1 ± 0.9 µM	1.76	0.9	13 ± 0.4 µM	1.7	21.6 ± 0.8 µM	12.2 ± 0.62 µM	
CC(/C=C/c1ccccc1)=[N+]1NC(N)=[S+][Pd-]1([Cl])[PH](c1ccccc1)(c1ccccc1)c1ccccc1.[Cl-] [PdB1, [PdCl(L-B1)(PPh3)]Cl]	1.45 ± 0.1 µM	1.2	3.79 ± 0.4 µM	0.4	1.42 ± 0.07 µM	1.2	1.58 ± 0.07 µM	0.12 ± 0.01 µM	14.2	0.2 ± 0.01 µM	1.66	8.5	44.8 ± 2 µM		1.7 ± 0.2 µM	1.34 ± 0.08 µM	Q2-LL (viable cells, Q3 in the text) (A2780cis cells [5]): 37.1%; cell death within spheroids (DAPI/PI staining) (A2780cis spheroids; 12.5 µM): significant level of cell death; cell death within spheroids (DAPI/PI staining) (A2780cis spheroids; 25 µM): complete disintegration; spheroid morphology (brightfield) (A2780cis spheroids; 25 µM): marked reduction in compaction and cohesion; spheroid morphology (brightfield) (A2780cis spheroids; lower concentrations): continued spheroid growth; colony formation (A2780cis cells [6]): significantly reduced colony formation; LIVE/DEAD viability (A2780cis cells [7]): marked increase in red-fluorescing (non-viable) cells; nuclear morphology (DAPI staining) (A2780cis cells [8]): chromatin condensation and nuclear fragmentation
CNC(NN=C(C)C=Cc1ccccc1)=[S][Pd]([Cl])[P](c1ccccc1)(c1ccccc1)c1ccccc1.[Cl-] [PdB2]	0.92 ± 0.08 µM	7.4	1.47 ± 0.2 µM	4.7	1.48 ± 0.06 µM	4.6		0.13 ± 0.01 µM	52.7	0.21 ± 0.01 µM	1.62	32.6	30.4 ± 0.4 µM	0.2	6.85 ± 0.3 µM		
CCNC1=[S+][Pd-]([Cl])([PH](c2ccccc2)(c2ccccc2)c2ccccc2)[N+](=C(C)/C=C/c2ccccc2)N1.[Cl-] [PdB3, [PdCl(L-B3)(PPh3)]Cl]	1.04 ± 0.06 µM	8.9	0.91 ± 0.008 µM	10.2	< 2 µM			0.23 ± 0.01 µM	40.3	0.26 ± 0.01 µM	1.13	35.7	13 ± 1 µM	0.7	9.28 ± 0.3 µM		stability in DMSO [9]: remained stable
NC1=[S+][Pd-]([Cl])([PH](c2ccccc2)(c2ccccc2)c2ccccc2)[N+](=C(/C=C/c2ccccc2)c2ccccc2)N1.[Cl-] [PdC1, [PdCl(L-C1)(PPh3)]Cl]	5.97 ± 0.1 µM	7.8	17.7 ± 1 µM	2.6	2.25 ± 0.3 µM	20.8	2.64 ± 0.06 µM	0.4 ± 0.01 µM	116.9	0.62 ± 0.01 µM	1.55	75.4	> 50 µM		46.8 ± 2 µM	> 50 µM	colony formation (A2780cis cells [6]): reduced colony formation
CNC1=[S+][Pd-]([Cl])([PH](c2ccccc2)(c2ccccc2)c2ccccc2)[N+](=C(/C=C/c2ccccc2)c2ccccc2)N1.[Cl-] [PdC2, [PdCl(L-C2)(PPh3)]Cl]	9.66 ± 0.4 µM		> 50 µM		> 50 µM			3.93 ± 0.2 µM		1.66 ± 0.01 µM	0.42		> 50 µM		> 50 µM		
CCNC1=[S+][Pd-]([Cl])([PH](c2ccccc2)(c2ccccc2)c2ccccc2)[N+](=C(/C=C/c2ccccc2)c2ccccc2)N1.[Cl-] [PdC3, [PdCl(L-C3)(PPh3)]Cl]	> 50 µM		> 50 µM		> 50 µM			22.8 ± 1 µM		11.1 ± 0.6 µM	0.48		> 50 µM		> 50 µM		
CC#N.CC#N.[Cl][Pd][Cl] [[PdCl2(MeCN)2], reference compound]	> 50 µM									> 50 µM			> 50 µM		> 50 µM		
